Test results as given in patent US4783482A, “Bis(thiocyanato)palladium(II)complexes” (Engelhard Corporation, priority 1985, dated 1988).
Where “and” joins values, the source holds several entries; their conditions need not be identical. Equal values may be shown once.

Legend:
S180 ascites [1] = assay: Anti-tumor evaluation: % increase in life span (% ILS) and survivors, S180 ascites in female CFW Swiss mice; format: in vivo; settings: for Best % ILS: best over doses
Protocol: The above-prepared compounds were evaluated against S180 ascites in female CFW Swiss mice. The mice were weighed (average weight: 20 g), placed into cages (four or six mice to a cage), and on day zero the mice were inoculated with 0.2 ml of a freshly prepared saline suspension (0.15 M NaCl) containing 1×10^7 tumor cells/ml or a total of 2×10^6 cells This inoculum was freshly prepared using "transfer" mice, which had been injected with tumor cells the previous week; it was obtained via the following steps: (1) the removal of cells from the peritoneal cavity of the sacrificed transfer mouse, (2) alternate centrifugation and washing operations (2-3 times with cold saline) to remove blood and other components, and (3) dilution of the volume of the packed cell with saline (1:3). A final centrifugation was carried out at 1000 RPM over a two minute period. A cell count was made on a 2,000-fold dilution of this 1:3 suspension by means of a Coulter Counter. A final dilution to 1×10^7 cells/ml was made, based on the average count.
On day 1, solutions of the test compounds were prepared, and each mouse in a set of four or six were injected with the same test compound at the same dosage. The doses were based on the average weight of the animals (cage weight). Also, beginning on day 1, two controls were employed containing six mice per control:
(1) Normal Control: This consisted solely of the carrier or diluent used in combination with the test compound; and
(2) Positive Control: This consisted solely of known anti-tumor agent cis-[Pt(NH3)2 Cl2 ] in saline (8 mg/kg) to test the response of the biological system.
The effectiveness of a test compound was measured in terms of the % increase in life span (%ILS) of the test mice relative to the Normal Control (Calculated from the day of tumor inoculation, i.e., day zero). To standardize the test data and permit intercomparisons, the day of evaluation was arbitrarily taken as that day corresponding to twice the mean life span (or average day of death) of the control. This established a practical upper limit of 100% on the %ILS attainable. For calculation purposes, the survivors of the day of evaluation were considered to have died on that day. The %ILS was calculated as follows: [formula] ILS values in excess of 50% were interpreted as antitumor activity, whereas values in excess of 75% indicated excellent antitumor activity.
All test compounds were evaluated in water containing 0.1-0.3% of the suspending agent "Klucel" (hydroxypropylcellulose).
Tables 3 and 4, infra, show the criticality of the ring size and the thiocyanato substituents, respectively. The protocols for determining effectiveness for the products in Tables 3 and 4 were identical to the procedure employed for determining the anti-tumor effectiveness of the products in Table 2.

S180 Ascites [2] = assay: ED90, LD50 and therapeutic index, S180 ascites; format: in vivo, mice; design: ED90: unit not given here; settings: for ED90: dose which causes a 50% increase in life span in 90% of the mice, determined graphically; for Therapeutic Index: mouse, in vivo
Protocol: The effective dose (ED90), lethal does (LD50) and therapeutic index (TI) were determined, via the method of Miller and Taiter (Reported by R. A. Turner, "Screening Methods in Pharmacology", Academic Press, New York, pages 61-62 (1976)).
In this study, ED90 represents the dose which causes a 50% increase in life span (ILS) in 90% of the test animals (mice), determined graphically. The LD50 value represents the lethal dose in 50% of said animals.

[3] = tested on: testicular and ovarian tumors; settings: background; cited from earlier work
[4] = dose 5 mg/kg, on day of evaluation (twice mean life span of control)
[5] = dose 10 mg/kg, on day of evaluation
[6] = dose 20 mg/kg, on day of evaluation
[7] = dose 40 mg/kg, on day of evaluation
[8] = dose 80 mg/kg, on day of evaluation
[9] = dose 160 mg/kg, on day of evaluation

Compound	Best % ILS (S180 ascites [1])	% ILS (S180 ascites [1]; dose 5 mg/kg)	Survivors (S180 ascites [1]; [4])	% ILS (S180 ascites [1]; dose 10 mg/kg)	Survivors (S180 ascites [1]; [5])	% ILS (S180 ascites [1]; dose 20 mg/kg)	Survivors (S180 ascites [1]; [6])	% ILS (S180 ascites [1]; dose 40 mg/kg)	Survivors (S180 ascites [1]; [7])	% ILS (S180 ascites [1]; dose 80 mg/kg)	Survivors (S180 ascites [1]; [8])	% ILS (S180 ascites [1]; dose 160 mg/kg)	Survivors (S180 ascites [1]; [9])	ED90 (S180 Ascites [2])	Therapeutic Index (S180 Ascites [2])	further results
Cc1cc2c(cc1C)[NH][Pd]([S]C#N)([S]C#N)[NH]2 [Ex. 6, Bis(Thiocyanato)-4,5-Dimethyl-o-Phenylenediaminepalladium(II)]	65%	-1%	0 of 6	24%	0 of 6	10%	0 of 6	2%	0 of 6	13%	0 of 6	65%	2 of 6	200	1.8	–
N#C[S][Pd]1([S]C#N)[NH]c2ccccc2[NH]1 [Ex. 5, Bis(Thiocyanato)-o-Phenylenediaminepalladium(II)]	81%	–	–	14%	0 of 4	15%	0 of 4	27%	0 of 4	81%	2 of 4	79%	1 of 4	130	–	% ILS (S180 ascites [1]; dose 320 mg/kg): -73%; Survivors (S180 ascites [1]; dose 320 mg/kg, on day of evaluation): 0 of 4
N.N.[Cl][Pt][Cl] [Positive Control, cis-[Pt(NH3)2 Cl2]]	–	–	–	–	–	–	–	–	–	–	–	–	–	–	–	anti-tumor activity (in words) [3]: singularly successful in bringing about a regression of testicular and ovarian tumors; Positive Control Survivors (S180 ascites [1]; 8 mg/kg in saline, run beside the test compound): 2 of 6 and 3 of 6 and 1 of 4 and 1 of 6 and 0 of 6
N#C[S][Pd][S]C#N.NC1CCCCC1N (centres unmarked) [Ex. 3, Bis(ThiocYanato)-1,2-Diaminocyclohexanepalladium(II)]	100% and 75%	0%	0 of 4	5%	0 of 4	1%	0 of 4	-1% and -3%	0 of 4	75% and 100%	3 of 4 and 4 of 4	39%	1 of 4	–	2.0 and 2.8	% ILS (S180 ascites [1]; dose 60 mg/kg): 22%; Survivors (S180 ascites [1]; dose 60 mg/kg, on day of evaluation): 0 of 4; % ILS (S180 ascites [1]; dose 100 mg/kg): 79%; Survivors (S180 ascites [1]; dose 100 mg/kg, on day of evaluation): 2 of 4; % ILS (S180 ascites [1]; dose 120 mg/kg): 36%; Survivors (S180 ascites [1]; dose 120 mg/kg, on day of evaluation): 2 of 4; % ILS (S180 ascites [1]; dose 140 mg/kg): 36%; Survivors (S180 ascites [1]; dose 140 mg/kg, on day of evaluation): 1 of 4
NCCN.[I-].[I-].[Pd+2] [Comp. Ex. L, Diiodo(ethylenediamine)palladium(II)]	–	-17%	0 of 4	-13%	0 of 4	-9%	0 of 4	-11%	0 of 4	24%	0 of 4	32%	1 of 4	–	–	–
